From ChEMBL document CHEMBL3638383, “Pyrimidone derivatives” (2015)

target: Glycogen synthase kinase-3 beta splice variant X1 (Bos taurus, UniProt A0A059UE90); assay: Inhibition Assay: A mixture containing 100 mM MES-sodium hydroxide (pH 6.5), 1 mM magnesium acetate, 0.5 mM EGTA, 5 mM, β-mercaptoethanol, 0.02% Tween 20, 10% glycerol, 12 µg/ml P-GS1, 41.7 µM [γ-^32P] ATP (68 kBq/ml), bovine cerebral TPK1 and a compound shown in Table (a final mixture contained 1.7% DMSO deriving from a solution of a test compound prepared in the presence of 10% DMSO) was used as a reaction system. The phosphorylation was started by adding ATP, and the reaction was conducted at 25° C. for 2 hours, and then stopped by adding 21% perchloric acid on ice cooling. The reaction mixture was centrifuged at 12,000 rpm for 5 minutes and adsorbed on P81 paper (Whatmann), and then the paper was washed four times with 75 mM phosphoric acid, three times with water and once with acetone. The paper was dried, and the residual radioactivity was measured using a liquid scintillation counter.

Going from Cn1c(OCC(=O)c2ccc(Br)cc2)nc(-c2ccncc2F)cc1=O to Cn1c(OCC(=O)c2ccc(Br)cc2)nc(-c2ccncn2)cc1=O, the IC50 rises from 27 nM to 108 nM (4-fold).

Going from Cn1c(OCC(=O)c2ccc(Br)cc2)nc(-c2ccncc2)cc1=O to Cn1c(OCC(=O)c2ccccc2)nc(-c2ccncn2)cc1=O, the IC50 falls from 167 nM to 20 nM (8.3-fold). The second is the more potent here.
